Laboratory results: patent publication US9771333B2, “Quinazoline derivatives as TAM family kinase inhibitors” (SIGNALCHEM LIFESCIENCES CORP., priority 2013, dated 2017)
One block for each compound: values may come before it.

Assays:
Format in all cases: biochemical
human Tyro3 = target: T1, human Tyro3 (Homo sapiens, UniProt Q06418); assay: Kinase enzymatic activity assay (33P-radiolabeled phosphate transfer), Tyro3; conditions: recombinant human Tyro3 (455-end), poly(4:1 glu:tyr) substrate, 30 minutes
T1 construct: GST (N); made in house; host or cells: Sf9 insect cells (baculovirus)
T1 sequence (Q06418 455-890 limits assumed): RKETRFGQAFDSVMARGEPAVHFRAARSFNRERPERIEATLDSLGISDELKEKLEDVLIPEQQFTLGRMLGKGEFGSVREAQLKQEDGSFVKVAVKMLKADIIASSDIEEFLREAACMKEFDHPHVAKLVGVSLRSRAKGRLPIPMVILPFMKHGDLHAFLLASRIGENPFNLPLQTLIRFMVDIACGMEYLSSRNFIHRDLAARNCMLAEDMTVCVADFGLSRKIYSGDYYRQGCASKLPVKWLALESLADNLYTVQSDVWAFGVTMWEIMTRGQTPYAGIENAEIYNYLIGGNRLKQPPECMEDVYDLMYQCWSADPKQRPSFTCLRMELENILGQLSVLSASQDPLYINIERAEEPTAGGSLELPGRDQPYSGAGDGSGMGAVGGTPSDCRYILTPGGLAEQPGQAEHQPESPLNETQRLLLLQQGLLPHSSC
Excerpt: (§1) The identification of compounds of the invention as Tyro3, Axl or Mer inhibitors was readily accomplished using the recombinant human Tyro3, Axl and Mer proteins and employing the ^33P-radiolabeled phosphate transfer assay for which the procedure is known to someone skilled in the art or as described in Example 9.
(§2) Recombinant human Tyro3 (455-end, the gene accession number NM_006293), human Axl (473-end, the gene accession number NM_021913) and human Mer (578-872, the gene accession number NM_006343) were independently expressed by baculovirus in Sf9 insect cells using an N-terminal GST tag. The recombinant proteins were stored at −70° C. in a medium containing 50 mM Tris-HCl, pH 7.5, 150 mM NaCl, 10 mM glutathione, 0.1 mM EDTA, 0.25 mM DTT, 0.1 mM PMSF and 25% glycerol. The recombinant proteins were aliquoted into smaller quantities after centrifugation to avoid repeated handling and multiple freeze/thaw cycles for the most favorable performance.
(§3) Kinase Assay Buffer: This buffer solution consisted of the following components: 25 mM MOPS, pH 7.2, 12.5 mM β-glycerol-phosphate, 25 mM MgCl2, 5 mM EGTA, 2 mM EDTA and DTT 0.25 mM which was added prior to use.
(§4) Kinase Dilution Buffer: Kinase Assay Buffer was diluted at a 1:4 ratio (5× dilution) with distilled water.
(§5) [^33P]-ATP assay cocktail: In a designated radioactive working area, a 250 μM [^33P]-ATP assay cocktail was prepared by the addition of the following components: 150 μL of 10 mM ATP stock solution, 100 μL [^33P]-ATP (1 mci/100 μL), and 5.75 mL of kinase assay buffer. This solution was stored in 1 mL aliquots at −20° C.
(§6) ATP stock solution (10 mM): The ATP stock solution was prepared by dissolving 55 mg of ATP in 10 mL of kinase assay buffer. It was stored in 200 μL aliquots at −20° C.
(§7) Active Kinase Stock Solution: The active recombinant kinase protein (0.1 μg/μL) was diluted with Kinase Dilution Buffer and the activity was assayed using a serial dilution method. The specific activity is expressed in nmoL/min/mg.
(§8) Substrates: poly(4:1 glu:tyr) is the substrate used for each kinase Tyro3, Axl and Mer: The peptide substrate was dissolved in water to give the final concentration of 1 mg/mL.
(§9) Test compound solution: Test compound was dissolved in DMSO to obtain a 10 mM solution. The assay solution was prepared by adding 5 μL of this solution to […] of 10% DMSO/water to obtain the final concentration of 50 μM.
(§10) The enzymatic activity of all three kinases was determined as follows. Using a 96-well plate, the wells were divided into three categories: Blank wells, […] and Test wells. In Test wells, 5 μL of the test compound solution and 5 μL of the substrate solution were added. In Control wells, 5 μL of 10% DMSO/water and 5 μL of the substrate solution were added. In Blank wells, 10 μL of 10% DMSO/water was added. To each well was added 10 μL of Active Kinase Stock Solution to make up the volume in each well to 20 μL. All test samples, controls and blanks were run in duplicate. The reaction was initiated by the addition of 5 μL of [^33P]-ATP assay cocktail, bringing the final volume up to 25 μL in every well. The mixture was incubated at room temperature for 30 minutes. The reaction was terminated by transferring 10 μL of the reaction mixture into a Millipore MultiScreen filter plate (cat. number MSPHN6B50). The filter plate was washed in a 1% phosphoric acid solution with constant gentle shaking for 15 minutes and this step was repeated once. After the plate was dried in air, scintillation fluid was added to each well and the radioactivity in each well in CPM was counted by a Microbeta TriLux. The corrected CPM in each test well was determined by subtracting the average value of Blank well values. Percentage of inhibition of the kinase enzymatic activity by the test compound was determined using the following formula: […]
(§11) The IC50 values were determined in a similar way following a serial dilution of the test compound. […]

human Mer = target: T2, human Mer (Homo sapiens, UniProt Q12866); assay: Kinase enzymatic activity assay (33P-radiolabeled phosphate transfer), Mer; conditions: recombinant human Mer (578-872), poly(4:1 glu:tyr) substrate, 30 minutes
T2 construct: GST (N); made in house; host or cells: Sf9 insect cells (baculovirus)
T2 sequence (Q12866 578-872): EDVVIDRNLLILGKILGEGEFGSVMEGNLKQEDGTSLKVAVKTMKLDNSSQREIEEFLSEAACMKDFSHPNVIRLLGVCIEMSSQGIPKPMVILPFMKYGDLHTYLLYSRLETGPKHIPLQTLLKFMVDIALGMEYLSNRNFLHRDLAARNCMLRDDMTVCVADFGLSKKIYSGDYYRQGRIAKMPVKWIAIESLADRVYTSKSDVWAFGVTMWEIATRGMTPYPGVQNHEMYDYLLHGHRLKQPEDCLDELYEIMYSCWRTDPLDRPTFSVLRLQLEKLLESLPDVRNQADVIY
Excerpt: as §1, §2, §3, §4, §5, §6, §7, §8, §9, §10, §11

human Axl = target: T3, human Axl (Homo sapiens, UniProt P30530); assay: Kinase enzymatic activity assay (33P-radiolabeled phosphate transfer), Axl; conditions: recombinant human Axl (473-end), poly(4:1 glu:tyr) substrate, 30 minutes
T3 construct: GST (N); made in house; host or cells: Sf9 insect cells (baculovirus)
T3 sequence (P30530 473-894 limits assumed): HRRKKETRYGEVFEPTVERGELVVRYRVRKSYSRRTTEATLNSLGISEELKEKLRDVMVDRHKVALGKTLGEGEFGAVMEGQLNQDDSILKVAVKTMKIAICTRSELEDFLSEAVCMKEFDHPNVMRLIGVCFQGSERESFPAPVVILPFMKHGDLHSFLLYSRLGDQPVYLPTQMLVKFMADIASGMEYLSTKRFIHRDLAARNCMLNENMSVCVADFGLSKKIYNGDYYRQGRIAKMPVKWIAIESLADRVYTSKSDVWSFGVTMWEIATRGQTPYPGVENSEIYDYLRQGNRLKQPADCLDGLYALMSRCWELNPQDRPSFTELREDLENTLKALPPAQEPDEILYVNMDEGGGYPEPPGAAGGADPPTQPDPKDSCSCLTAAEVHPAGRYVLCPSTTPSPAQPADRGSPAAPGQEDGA
Excerpt: as §1, §2, §3, §4, §5, §6, §7, §8, §9, §10, §11

Structure (SMILES): c1nc(Nc2nncs2)c2c(OC3CCOCC3)cc(OCCCN3CCOCC3)cc2n1 [Example 2.19, N-(7-(3-morpholinopropoxy)-5-((tetrahydro-2H-pyran-4-yl)oxy)quinazolin-4-yl)-1,3,4-thiadiazol-2-amine]
IC50 (human Tyro3): 1 to 10 µM | IC50 (human Mer): 1 to 10 µM | IC50 (human Axl): < 0.5 µM

Structure (SMILES): CN1CCN(CCOc2cc(OC3CCOCC3)c3c(Nc4nccs4)ncnc3c2)CC1 [Example 2.14, N-(7-(2-(4-methylpiperazin-1-yl)ethoxy)-5-((tetrahydro-2H-pyran-4-yl)oxy)quinazolin-4-yl)thiazol-2-amine]
IC50 (human Tyro3): 1 to 10 µM | IC50 (human Mer): < 0.5 µM | IC50 (human Axl): < 0.5 µM

Structure (SMILES): CN1CCC(COc2cc(OC3CCOCC3)c3c(Sc4nccs4)ncnc3c2)CC1 [Example 2.52, 2-((7-((1-methylpiperidin-4-yl)methoxy)-5-((tetrahydro-2H-pyran-4-yl)oxy)quinazolin-4-yl)thio)thiazole]
IC50 (human Tyro3): < 0.5 µM | IC50 (human Mer): < 0.5 µM | IC50 (human Axl): < 0.5 µM

Structure (SMILES): COc1cc(OCCCN2CCOCC2)cc2ncnc(Oc3cccc(CC(=O)NCc4ccccc4)c3)c12 [Example 2.29, N-benzyl-2-(3-((5-methoxy-7-(3-morpholinopropoxy)quinazolin-4-yl)oxy)phenyl)acetamide]
IC50 (human Tyro3): 1 to 10 µM | IC50 (human Mer): > 10 µM | IC50 (human Axl): > 10 µM

Structure (SMILES): Fc1ccc(Oc2ncnc3cc(OCCCN4CCOCC4)cc(N4CCOCC4)c23)c(Cl)c1 [Example 4.8, 4-(3-((4-(2-chloro-4-fluorophenoxy)-5-morpholinoquinazolin-7-yl)oxy)propyl)morpholine]
IC50 (human Tyro3): 1 to 10 µM | IC50 (human Mer): 1 to 10 µM | IC50 (human Axl): > 10 µM

Structure (SMILES): Cc1cnc(Nc2ncnc3cc(OCC4CCN(C)CC4)cc(OC4CCOCC4)c23)s1 [Example 2.43, 5-methyl-N-(7-((1-methylpiperidin-4-yl)methoxy)-5-((tetrahydro-2H-pyran-4-yl)oxy)quinazolin-4-yl)thiazol-2-amine]
IC50 (human Tyro3): 1 to 10 µM | IC50 (human Mer): < 0.5 µM | IC50 (human Axl): < 0.5 µM

Structure (SMILES): COCCOc1cc(OCCN2CCN(C)CC2)cc2ncnc(Sc3ccc(Cl)cc3)c12 [Example 4, 4-((4-chlorophenyl)thio)-5-(2-methoxyethoxy)-7-(2-(4-methylpiperazin-1-yl)ethoxy)quinazoline]
IC50 (human Tyro3): 1 to 10 µM | IC50 (human Mer): > 10 µM | IC50 (human Axl): > 10 µM

Structure (SMILES): COCCOc1cc(OCCN2CCN(C)CC2)cc2ncnc(Sc3ccc(F)cc3)c12 [Example 4.1, 4-((4-fluorophenyl)thio)-5-(2-methoxyethoxy)-7-(2-(4-methylpiperazin-1-yl)ethoxy)quinazoline]
IC50 (human Tyro3): 0.5 to 1 µM | IC50 (human Mer): > 10 µM | IC50 (human Axl): > 10 µM

Other lines, results leading:

IC50 (human Tyro3): < 0.5 µM | IC50 (human Mer): < 0.5 µM | IC50 (human Axl): 0.5 to 1 µM
Structure (SMILES): CN1CCC(COc2cc(OC3CCOCC3)c3c(Oc4ccc(F)cc4Cl)ncnc3c2)CC1 [Example 4.7, 4-(2-chloro-4-fluorophenoxy)-7-((1-methylpiperidin-4-yl)methoxy)-5-((tetrahydro-2H-pyran-4-yl)oxy)quinazoline]

IC50 (human Tyro3): < 0.5 µM | IC50 (human Mer): 1 to 10 µM | IC50 (human Axl): < 0.5 µM
Structure (SMILES): Cc1csc(Sc2ncnc3cc(OCC4CCN(C)CC4)cc(OC4CCOCC4)c23)n1 [Example 2.51, 4-methyl-2-((7-((1-methylpiperidin-4-yl)methoxy)-5-((tetrahydro-2H-pyran-4-yl)oxy)quinazolin-4-yl)thio)thiazole]

IC50 (human Tyro3): 0.5 to 1 µM | IC50 (human Mer): > 10 µM | IC50 (human Axl): 1 to 10 µM
Structure (SMILES): CN1CCN(CCOc2cc(OC3CCOCC3)c3c(Oc4cccc(CC(=O)NCc5ccccc5)c4)ncnc3c2)CC1 [Example 2.33, N-benzyl-2-(3-((7-(2-(4-methylpiperazin-1-yl)ethoxy)-5-((tetrahydro-2H-pyran-4-yl)oxy)quinazolin-4-yl)oxy)phenyl)acetamide]

IC50 (human Tyro3): 0.5 to 1 µM | IC50 (human Mer): 1 to 10 µM | IC50 (human Axl): 1 to 10 µM
Structure (SMILES): CN1CCN(CCOc2cc(OC3CCOCC3)c3c(Oc4ccc(F)cc4Cl)ncnc3c2)CC1 [Example 3, 4-(2-chloro-4-fluorophenoxy)-7-(2-(4-methylpiperazin-1-yl)ethoxy)-5-((tetrahydro-2H-pyran-4-yl)oxy)quinazoline]

IC50 (human Tyro3): 1 to 10 µM | IC50 (human Mer): > 10 µM | IC50 (human Axl): < 0.5 µM
Structure (SMILES): COc1ncnc2cc(OCCOCCN(C)C)cc(OC3CCOCC3)c12 [Example 2.16, 2-(2-((4-methoxy-5-((tetrahydro-2H-pyran-4-yl)oxy)quinazolin-7-yl)oxy)ethoxy)-N,N-dimethylethanamine]

IC50 (human Tyro3): > 10 µM | IC50 (human Mer): 1 to 10 µM | IC50 (human Axl): 1 to 10 µM
Structure (SMILES): Cc1nnc(Nc2ncnc3cc(OCCCN4CCOCC4)cc(OC4CCOCC4)c23)s1 [Example 2.20, 5-methyl-N-(7-(3-morpholinopropoxy)-5-((tetrahydro-2H-pyran-4-yl)oxy)quinazolin-4-yl)-1,3,4-thiadiazol-2-amine]

IC50 (human Tyro3): > 10 µM | IC50 (human Mer): > 10 µM | IC50 (human Axl): < 0.5 µM
Structure (SMILES): CN1CCC(COc2cc(OC3CCOCC3)c3c(Nc4nc(C(F)(F)F)cs4)ncnc3c2)CC1 [Example 2.23, N-(7-((1-methylpiperidin-4-yl)methoxy)-5-((tetrahydro-2H-pyran-4-yl)oxy)quinazolin-4-yl)-4-(trifluoromethyl)thiazol-2-amine]

IC50 (human Tyro3): < 0.5 µM | IC50 (human Mer): 1 to 10 µM | IC50 (human Axl): 1 to 10 µM
Structure (SMILES): COc1cc(OCCCN2CCOCC2)cc2ncnc(Oc3ccc(F)cc3Cl)c12 [Example 2.17, 4-(3-((4-(2-chloro-4-fluorophenoxy)-5-methoxyquinazolin-7-yl)oxy)propyl)morpholine]
